Key:
testis-derived Brdt = test: JQ1 inhibition of Brdt binding to H4 peptides; design: species or system mouse; details: JQ1 added to extract prior to peptide pull-down; Figure 6C lower left
[1] = test system: histone octamers / chromatin (H4K5 and H4K8); details: [14C] butyryl-CoA, in vitro; ref Chen et al., 2007; cited from earlier work

Compound: Cc1sc2c(c1C)C(c1ccc(Cl)cc1)=N[C@@H](CC(=O)OC(C)(C)C)c1nnc(C)n1-2 [JQ1]
- inhibition of Brdt binding to H4K5acK8bu peptide (testis-derived Brdt): abolished the binding
- inhibition of Brdt binding to acetylated H4 peptide (testis-derived Brdt): abolished the binding

Compound: CREB binding protein (CBP): histone acyltransferase
- lysine butyrylation of core histones [1]: can catalyze lysine butyrylation

Compound: p300: Flag tagged human p300 (324-2094), recombinant from baculovirus-infected insect cells
- lysine butyrylation of core histones [1]: can catalyze lysine butyrylation

Source: publication PMC4850424 (Molecular Cell, 2016)
